This is an account of results in article PMC6151550, “Inhibitory Effect of Selaginellins from Selaginella tamariscina (Beauv.) Spring against Cytochrome P450 and Uridine 5′-Diphosphoglucuronosyltransferase Isoforms on Human Liver Microsomes” (Molecules : A Journal of Synthetic Chemistry and Natural …, 2017).

Bounds are passed on as bounds.

What all share (format): in vitro ADME
Assay [1] deals with T1, CYP2A6 (Homo sapiens, UniProt P11509).
T1 construct: the incubation mixtures containing pooled HLMs (0.25 mg/mL, H2630, Xenotech); tissue Xenotech H2630; host or cells: pooled human liver microsomes
T1 sequence (P11509 1-494): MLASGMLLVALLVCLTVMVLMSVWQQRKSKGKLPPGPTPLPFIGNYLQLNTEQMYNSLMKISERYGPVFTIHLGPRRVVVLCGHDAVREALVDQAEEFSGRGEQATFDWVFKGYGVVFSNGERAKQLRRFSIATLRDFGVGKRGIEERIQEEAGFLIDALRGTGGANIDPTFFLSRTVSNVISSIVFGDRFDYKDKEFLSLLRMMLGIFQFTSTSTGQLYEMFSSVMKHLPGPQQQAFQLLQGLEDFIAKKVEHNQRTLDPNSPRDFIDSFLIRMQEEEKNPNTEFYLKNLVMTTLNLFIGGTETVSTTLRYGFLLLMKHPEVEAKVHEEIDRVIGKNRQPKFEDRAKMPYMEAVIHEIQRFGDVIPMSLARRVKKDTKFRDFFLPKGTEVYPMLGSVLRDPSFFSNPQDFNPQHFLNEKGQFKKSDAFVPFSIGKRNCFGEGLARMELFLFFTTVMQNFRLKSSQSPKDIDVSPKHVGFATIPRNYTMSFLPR
The assay can be described thus: CYP2A6 inhibition (coumarin 7-hydroxylase) in human liver microsomes, substrate cocktail LC-MS/MS. As to the method: (§1) The inhibitory effects of two selaginellins on the metabolism of ten P450 probe substrates were evaluated using previously reported method with minor modification. Phenacetin O-deethylase, coumarin 7-hydroxylase, bupropion 4-hydroxylase, amodiaquine N-deethylase, tolbutamide 4-hydroxylase, omeprazole 5-hydroxylase, dextromethorphan O-demethylase, chlorzoxazone 6-hydroxylase and midazolam 1′-hydroxylase activities were determined as probe activities for CYP1A2, CYP2A6, CYP2B6, CYP2C8, CYP2C9, CYP2C19, CYP2D6, CYP2E1 and […], respectively, using substrate cocktail incubation and tandem mass spectrometry (Table 2). Selaginellins were dissolved in methanol. The final concentrations of organic solvent (methanol) for the cocktail incubation conditions in all experiments were 1.0% (v/v). In brief, the incubation mixtures containing pooled HLMs (0.25 mg/mL, H2630, Xenotech), P450 probe substrate cocktail, and inhibitor (0, 0.5, 2, 5, 20 and 50 μM) were preincubated at 37 °C for 5 min. […] After mixing and centrifugation, aliquots were analyzed by liquid chromatography-tandem mass spectrometry (LC-MS/MS) as previous described. The CYP2J2 inhibitory effects of two selaginellins were also evaluated in pooled HLMs using previously reported method. […]

The target in assay [2] is T2, CYP2E1 (Homo sapiens, UniProt P05181).
T2 construct: the incubation mixtures containing pooled HLMs (0.25 mg/mL, H2630, Xenotech); tissue Xenotech H2630; host or cells: pooled human liver microsomes
The assay can be described thus: CYP2E1 inhibition (chlorzoxazone 6-hydroxylase) in human liver microsomes, substrate cocktail LC-MS/MS. As to the method:
as §1

In assay [3] the target is T3, UGT1A9 (Homo sapiens, UniProt O60656).
T3 construct: from tissue; host or cells: human liver microsomes
T3 sequence (O60656 26-530): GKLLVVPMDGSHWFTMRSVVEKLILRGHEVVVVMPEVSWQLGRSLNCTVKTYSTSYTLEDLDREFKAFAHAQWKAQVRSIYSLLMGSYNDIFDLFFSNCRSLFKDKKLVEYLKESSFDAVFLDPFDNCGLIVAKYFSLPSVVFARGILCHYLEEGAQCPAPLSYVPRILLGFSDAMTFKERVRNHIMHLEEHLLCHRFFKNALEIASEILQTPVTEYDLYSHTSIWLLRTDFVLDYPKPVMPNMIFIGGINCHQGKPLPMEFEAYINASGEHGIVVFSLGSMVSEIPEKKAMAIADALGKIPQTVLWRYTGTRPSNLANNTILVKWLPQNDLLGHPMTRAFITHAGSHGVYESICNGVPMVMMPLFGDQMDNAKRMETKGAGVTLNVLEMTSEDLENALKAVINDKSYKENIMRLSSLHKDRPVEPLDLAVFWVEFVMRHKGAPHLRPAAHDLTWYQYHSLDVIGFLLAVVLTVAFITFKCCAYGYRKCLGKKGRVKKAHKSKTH
Put plainly: UGT1A9 inhibition (mycophenolic acid glucuronidation) in human liver microsomes, cocktail LC-MS/MS. The procedure: (§2) The inhibitory effects of two selaginellins on the metabolism of six UGT probe substrates were evaluated using previously reported method with minor modification. In brief, HLMs (0.25 mg/mL) were activated by incubation in the presence of alamethicin (25 μg/mL) for 15 min on ice. After the addition of UGT isoform-selective substrates and selaginellins (0, 0.5, 2, 5, 20 and 50 μM) the final concentrations of organic solvent (methanol) for the cocktail incubation conditions were 1.0% (v/v). The incubation reaction mixtures were pre-incubated for 5 min. The reaction was initiated by the addition of 5 mM UDPGA and further incubated for 60 min. All reactions were terminated by adding ice-cold acetonitrile containing estrone glucuronide (IS). After mixing and centrifugation, aliquots were injected into a LC-MS/MS as described previously (Table 2). All microsomal incubations were performed in triplicate.
(§3) The IC50 values (concentration of the inhibitor causing 50% inhibition of the original enzyme activity) were calculated using WinNonlin software (Pharsight, Mountain View, CA, USA): percentage of control activity = 100 × [1 − (I/(I + IC50))], where I is the inhibitor concentration, and IC50 is the inflection point on the curve.

The target of assay [4] is T4, UGT2B7 (Homo sapiens, UniProt P16662).
T4 construct: from tissue; host or cells: human liver microsomes
T4 sequence (P16662 24-529): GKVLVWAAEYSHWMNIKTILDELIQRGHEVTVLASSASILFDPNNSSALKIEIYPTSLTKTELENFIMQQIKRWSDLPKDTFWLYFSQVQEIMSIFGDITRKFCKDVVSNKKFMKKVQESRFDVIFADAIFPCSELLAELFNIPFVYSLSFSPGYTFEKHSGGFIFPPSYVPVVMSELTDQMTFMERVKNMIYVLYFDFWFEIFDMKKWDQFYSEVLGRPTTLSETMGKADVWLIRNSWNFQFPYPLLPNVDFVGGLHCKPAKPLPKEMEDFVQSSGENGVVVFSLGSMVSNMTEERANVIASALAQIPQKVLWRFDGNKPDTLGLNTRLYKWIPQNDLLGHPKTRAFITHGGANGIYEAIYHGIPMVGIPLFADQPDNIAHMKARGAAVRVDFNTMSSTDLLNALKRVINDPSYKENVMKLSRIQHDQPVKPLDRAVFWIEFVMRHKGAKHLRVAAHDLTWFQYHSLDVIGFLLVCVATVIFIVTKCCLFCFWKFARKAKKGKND
Put plainly: UGT2B7 inhibition (naloxone glucuronidation) in human liver microsomes, cocktail LC-MS/MS. As to the method: as §2, §3

T2 sequence (P05181 whole entry): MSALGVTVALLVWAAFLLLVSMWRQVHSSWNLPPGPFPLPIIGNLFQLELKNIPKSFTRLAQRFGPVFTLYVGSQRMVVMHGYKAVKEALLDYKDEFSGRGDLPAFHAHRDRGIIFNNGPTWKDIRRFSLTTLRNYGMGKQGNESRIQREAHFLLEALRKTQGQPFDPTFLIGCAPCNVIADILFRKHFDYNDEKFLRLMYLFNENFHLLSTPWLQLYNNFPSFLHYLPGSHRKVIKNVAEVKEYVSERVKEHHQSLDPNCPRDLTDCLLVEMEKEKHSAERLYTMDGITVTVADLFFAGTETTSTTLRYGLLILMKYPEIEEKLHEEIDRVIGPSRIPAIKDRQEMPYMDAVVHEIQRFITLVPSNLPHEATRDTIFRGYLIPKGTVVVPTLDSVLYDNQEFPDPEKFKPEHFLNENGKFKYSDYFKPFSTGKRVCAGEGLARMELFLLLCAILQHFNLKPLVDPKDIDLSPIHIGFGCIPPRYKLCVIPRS

As to `COc1ccc(C(=C2C=CC(=O)C=C2)c2c(-c3ccc(O)cc3)ccc(CO)c2C#Cc2ccc(O)cc2)cc1` [Selaginellin M], the IC50 in assay [1] was > 50 µM; in assay [2] it was > 50 µM; in assay [3], 6.5 µM; in assay [4] it was 10.4 µM.

In the case of `O=C1C=CC(=C(c2ccc(O)cc2)c2c(-c3ccc(O)cc3)ccc(CO)c2C#Cc2ccc(O)cc2)C=C1` [Selaginellin], the IC50 in assay [1] is > 50 µM; in assay [2] it was 38.5 µM; in assay [3], 8.7 µM; in assay [4], 15.6 µM.
